Results: patent US8278343B2, “Pyrrolidines” (Pfizer Inc., priority 2008, dated 2012)

target: T1, recombinant human EP-2 receptor (Homo sapiens, UniProt P43116); assay: In vitro antagonist potency against recombinant human prostaglandin E2 (EP-2) receptor in CHO cells (cAMP, Protocol 1); type: cell-based; settings: CHO cells expressing recombinant human EP-2 receptor, stimulated with 5 nM PGE2; cAMP readout; Ki by Cheng-Prusoff equation; read-out: EP2 Ki
T1 construct: stably transfected with full length cDNA encoding human Prostaglandin E2; expressed in transfected cells
Experimental: 1.0 Measurement of In Vitro Antagonist Potency (IC50) of Compounds Against Recombinant Human Prostaglandin E2 Receptor in CHO Cells
The prostaglandin E2 (EP-2) receptor is Gs coupled and agonism of the receptor by PGE2 results in activation of intracellular adenylate cyclase enzymes that synthesise the second messenger signalling molecule, adenosine 3′,5′-cyclic monophosphate (cAMP). CHO cells expressing the recombinant human EP-2 receptor are stimulated with PGE2 (5 nM) equivalent to approximately […] values to give the maximal cAMP signal. Decreases in cAMP levels following treatment of stimulated recombinant EP-2 cells with potential antagonist compounds were measured and potency (IC50) calculated as follows.
A Chinese hamster ovary (CHO) cell line stably transfected with full length cDNA encoding human Prostaglandin E2 was established using standard molecular biology methods. Test compounds were dissolved in dimethyl sulphoxide (DMSO) at 4 mM. 11 point half log unit increment dilution series of test compound were prepared in DMSO then diluted 1 in 40 in a buffer comprised of phosphate buffered saline (PBS) and 0.05% pluronic F-127 surfactant. Freshly cultured cells at 80-90% confluence were harvested and re-suspended in 90% growth media/10% DMSO. The cells were frozen using a planar freezer and stored in frozen aliquots in cryovials in liquid nitrogen until the day of the experiment. A vial of cells was defrosted in a 37° C. water bath for 2 min, then transferred to 10 ml of Dulbecco's Modified Eagle's Medium (DMEM). The cells were then centrifuged for 5 min at 1000 g and the pellet re-suspended at 1,000,000 cells/ml in DMEM. 5,000 cells (5 ul) were added to 5 ul of the compound dilution series in a 384 well assay plate and pre-incubated for 30 min at 37° C. 5 ul of agonist (15 nM PGE2 in PBS to give 5 nM FAC) was added and plates further incubated for 90 min at 37° C. The relative cAMP concentration in each well was then measured using a β-galactosidase enzyme fragment complementation method purchased in kit form as the Discoverx cAMP II kit from GE Healthcare, UK. […] Sigmoidal curves were fitted to plots of log10 inhibitor concentration vs percent effect. IC50 estimates were determined as the concentration of test compound giving an effect half way between the bottom and top asymptotes of the sigmoidal dose response curve. Each experiment included an IC50 determination for the literature compound as a standard to track assay consistency and allow fair comparison between values obtained in different experiments. The EC50 of PGE2 is used in combination with the ligand concentration in the assay to determine Ki values for antagonist dose responses using the Cheng-Prusoff equation. Consequently an agonist dose response curve is carried out for each experiment using the same incubation as the antagonist plate.

T1 sequence (P43116 whole entry): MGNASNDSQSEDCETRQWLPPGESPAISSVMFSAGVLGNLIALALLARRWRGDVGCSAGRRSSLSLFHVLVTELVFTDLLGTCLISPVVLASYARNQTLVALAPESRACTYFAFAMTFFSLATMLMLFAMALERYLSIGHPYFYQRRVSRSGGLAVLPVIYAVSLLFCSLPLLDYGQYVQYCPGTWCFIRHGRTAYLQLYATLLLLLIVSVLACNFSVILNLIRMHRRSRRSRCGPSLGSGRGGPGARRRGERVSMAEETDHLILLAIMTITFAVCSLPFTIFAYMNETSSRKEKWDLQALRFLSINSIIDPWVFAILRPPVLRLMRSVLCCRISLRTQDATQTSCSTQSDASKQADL

Row | Compound | Ki [nM]
1 | COc1ccccc1C(=O)N1CCC(COc2ccc(-c3ccc(C#N)cc3)nc2)(C(=O)O)C1 (single isomer, unassigned) [Example 62] | 868
2 | COc1ccccc1C(=O)N1CCC(COc2ccc(-c3ncc(F)cn3)cc2)(C(=O)O)C1 (single isomer, unassigned) [Example 63] | 174
3 | COc1ccccc1C(=O)N1CCC(COc2ccc(-c3ncc(F)cn3)cc2)(C(=O)O)C1 (single isomer, unassigned) [Example 64] | 621
4 | COc1ccccc1C(=O)N1CCC(COc2ccc(-c3ncc(C#N)cn3)cc2)(C(=O)O)C1 (single isomer, unassigned) [Example 65] | 175
5 | COc1ccccc1C(=O)N1CCC(COc2ccc(-c3ccc(C#N)cc3)cc2)(C(=O)O)C1 (single isomer, unassigned) [Example 66] | 3.3
6 | COc1ccccc1C(=O)N1CCC(COc2ccc(-c3ccc(C#N)cc3)cc2)(C(=O)O)C1 (single isomer, unassigned) [Example 67] | 85.7
7 | COc1ccccc1C(=O)N1CCC(COc2ccc(-c3ccc(Cl)cc3)nc2)(C(=O)O)C1 (single isomer, unassigned) [Example 70] | 22.7
8 | COc1ccccc1C(=O)N1CCC(COc2ccc(-c3ccc(Cl)cc3)nc2)(C(=O)O)C1 (single isomer, unassigned) [Example 71] | 23.9
9 | COc1ccccc1C(=O)N1CCC(COc2ccc(-c3ncc(Cl)cn3)cc2)(C(=O)O)C1 (single isomer, unassigned) [Example 72] | 25.5
10 | COc1ccccc1C(=O)N1CCC(COc2ccc(-c3ncc(Cl)cn3)cc2)(C(=O)O)C1 (single isomer, unassigned) [Example 73] | 459
11 | COc1ccccc1C(=O)N1CCC(COc2cnc(-c3ccc(Cl)cc3)nc2)(C(=O)O)C1 (single isomer, unassigned) [Example 74] | 35.6
12 | COc1ccccc1C(=O)N1CCC(COc2cnc(-c3ccc(Cl)cc3)nc2)(C(=O)O)C1 (single isomer, unassigned) [Example 75] | 504
13 | COc1ccccc1C(=O)N1CCC(COc2ccc(-c3ccc(F)cc3)nc2)(C(=O)O)C1 (single isomer, unassigned) [Example 76] | 158
14 | O=C(C1CCC1)N1CCC(COc2ccc(-c3ccc(F)cc3)cc2)(C(=O)O)C1 (single isomer, unassigned) [Example 79] | 21.3
15 | O=C(C1CCC1)N1CCC(COc2ccc(-c3ccc(F)cc3)cc2)(C(=O)O)C1 (single isomer, unassigned) [Example 80] | 344
16 | O=C(C1CCCC1)N1CCC(COc2ccc(-c3ccc(F)cc3)cc2)(C(=O)O)C1 (single isomer, unassigned) [Example 81] | 55.5
17 | O=C(C1CCCC1)N1CCC(COc2ccc(-c3ccc(F)cc3)cc2)(C(=O)O)C1 (single isomer, unassigned) [Example 82] | 524
18 | O=C(C1CC1)N1CCC(COc2ccc(-c3ccc(F)cc3)cc2)(C(=O)O)C1 (single isomer, unassigned) [Example 83] | 119
19 | O=C(C1CC1)N1CCC(COc2ccc(-c3ccc(F)cc3)cc2)(C(=O)O)C1 (single isomer, unassigned) [Example 84] | 438
20 | Cc1ccc(OC(=O)N2CCC(COc3ccc(-c4ccc(F)cc4)cc3)(C(=O)O)C2)cc1 (single isomer, unassigned) [Example 86] | 5.36
21 | COc1ccc(OC(=O)N2CCC(COc3ccc(-c4ccc(F)cc4)cc3)(C(=O)O)C2)cc1 (single isomer, unassigned) [Example 92] | 7.81
22 | COc1ccc(OC(=O)N2CCC(COc3ccc(-c4ccc(F)cc4)cc3)(C(=O)O)C2)cc1 (single isomer, unassigned) [Example 93] | 165
23 | COc1ccccc1C(=O)N1CCC(COc2ccc(-c3ccc(C#N)cn3)cc2)(C(=O)O)C1 (centres unmarked) [Example 3, 3 ((4-(5-cyanopyridin-2-yl)phenoxy)methyl)-1-(2-methoxybenzoyl)pyrrolidine-3-carboxylic acid] | 24.4

The remaining lines, values ahead:

Row | Ki [nM] | Compound
24 | 14.6 | COc1ccccc1C(=O)N1CCC(COc2ccc(-c3ccc(F)cc3)cc2)(C(=O)O)C1 (single isomer, unassigned) [Example 68]
25 | 309 | COc1ccccc1C(=O)N1CCC(COc2ccc(-c3ccc(F)cc3)cc2)(C(=O)O)C1 (single isomer, unassigned) [Example 69]
26 | 225 | Cc1ccc(OC(=O)N2CCC(COc3ccc(-c4ccc(F)cc4)cc3)(C(=O)O)C2)cc1 (single isomer, unassigned) [Example 87]
27 | 14.9 | O=C(Oc1ccc(Cl)cc1)N1CCC(COc2ccc(-c3ccc(F)cc3)cc2)(C(=O)O)C1 (single isomer, unassigned) [Example 88]
28 | 252 | O=C(Oc1ccc(Cl)cc1)N1CCC(COc2ccc(-c3ccc(F)cc3)cc2)(C(=O)O)C1 (single isomer, unassigned) [Example 89]
29 | 4.16 | O=C(Oc1ccc(F)cc1)N1CCC(COc2ccc(-c3ccc(F)cc3)cc2)(C(=O)O)C1 (single isomer, unassigned) [Example 90]
30 | 37.4 | O=C(Oc1ccc(F)cc1)N1CCC(COc2ccc(-c3ccc(F)cc3)cc2)(C(=O)O)C1 (single isomer, unassigned) [Example 91]
31 | 431 | COc1ccccc1OC(=O)N1CCC(COc2ccc(-c3ccc(F)cc3)cc2)(C(=O)O)C1 (single isomer, unassigned) [Example 94]
32 | 1.03 | COc1ccc(NC(=O)N2CCC(COc3ccc(-c4ccc(F)cc4)cc3)(C(=O)O)C2)cc1 (single isomer, unassigned) [Example 95]
33 | 178 | COc1ccc(NC(=O)N2CCC(COc3ccc(-c4ccc(F)cc4)cc3)(C(=O)O)C2)cc1 (single isomer, unassigned) [Example 96]
34 | 1.89 | COc1cccc(NC(=O)N2CCC(COc3ccc(-c4ccc(F)cc4)cc3)(C(=O)O)C2)c1 (single isomer, unassigned) [Example 97]
35 | 260 | COc1cccc(NC(=O)N2CCC(COc3ccc(-c4ccc(F)cc4)cc3)(C(=O)O)C2)c1 (single isomer, unassigned) [Example 98]
36 | 1.99 | O=C(Nc1ccccc1Cl)N1CCC(COc2ccc(-c3ccc(F)cc3)cc2)(C(=O)O)C1 (single isomer, unassigned) [Example 99]
37 | 518 | O=C(Nc1ccccc1Cl)N1CCC(COc2ccc(-c3ccc(F)cc3)cc2)(C(=O)O)C1 (single isomer, unassigned) [Example 100]
38 | 3.59 | O=C(Nc1ccc(Cl)cc1)N1CCC(COc2ccc(-c3ccc(F)cc3)cc2)(C(=O)O)C1 (single isomer, unassigned) [Example 101]
39 | 160 | O=C(Nc1ccc(Cl)cc1)N1CCC(COc2ccc(-c3ccc(F)cc3)cc2)(C(=O)O)C1 (single isomer, unassigned) [Example 102]
40 | 3.77 | O=C(Nc1ccccc1F)N1CCC(COc2ccc(-c3ccc(F)cc3)cc2)(C(=O)O)C1 (single isomer, unassigned) [Example 103]
41 | 392 | O=C(Nc1ccccc1F)N1CCC(COc2ccc(-c3ccc(F)cc3)cc2)(C(=O)O)C1 (single isomer, unassigned) [Example 104]
